The record followed here is patent US10428044B2, “3-amino-1,5,6,7-tetrahydro-4H-indol-4-ones” (Bayer Pharma Aktiengesellschaft, priority 2014, dated 2019).

The target in the assay is (recombinant) catalytic domain of human Bub1 (amino acids 704-1085) (Homo sapiens (Human), UniProt O43683). Nature of the assay: Bub1 kinase assay (TR-FRET). Format: biochemical. Particulars: ATP 10 μM final, peptide substrate 1 μM final, 60 min at 22° C., read-out: Biological Assay: Bub1 kinase assay median IC50. Summed up:
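Compounds were serially diluted 1:3.4 from 2 mM DMSO stocks and incubated with the enzyme reaction for 60 min at 22° C. The reaction was stopped with EDTA, and biotinylated peptide phosphorylation was read by TR-FRET using Eu anti-mouse IgG, anti-phosphoserine antibody and streptavidin-XL665. IC50 was fitted by 4-parameter logistic to inhibition normalized to no-inhibitor and no-enzyme controls.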
(In general: TR-FRET usually uses a lanthanide donor and a delayed reading to cut background.)

The term IC50 denotes the concentration that gives 50% inhibition.

(recombinant) catalytic domain of human Bub1 (amino acids 704-1085), sequence (O43683 704-1085): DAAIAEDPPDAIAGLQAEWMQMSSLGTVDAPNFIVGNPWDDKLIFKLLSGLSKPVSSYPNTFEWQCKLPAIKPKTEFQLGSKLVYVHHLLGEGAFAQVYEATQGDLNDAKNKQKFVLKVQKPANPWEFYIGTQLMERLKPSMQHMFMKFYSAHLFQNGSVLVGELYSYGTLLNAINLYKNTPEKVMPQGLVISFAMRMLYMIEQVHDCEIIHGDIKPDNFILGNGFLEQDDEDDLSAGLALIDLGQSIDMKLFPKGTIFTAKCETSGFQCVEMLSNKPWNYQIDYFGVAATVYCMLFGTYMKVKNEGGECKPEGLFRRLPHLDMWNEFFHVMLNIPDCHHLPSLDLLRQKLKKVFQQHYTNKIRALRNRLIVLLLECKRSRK

In the case of `O=C1CCCc2[nH]c(-c3ccnc(NC(=O)C4CC4c4ccccc4)c3)c(Nc3ccccc3)c21` (stereo not drawn) [Example 239, N-{4-[4-oxo-3-(phenylamino)-4,5,6,7-tetrahydro-1H-indol-2-yl]pyridin-2-yl}-2-phenylcyclopropanecarboxamide], the IC50 came out at 45.9 nM.

For the compound `CC(=O)N(C)c1cc(-c2[nH]c3c(c2Nc2ccccc2)C(=O)CC(C)(C)C3)ccn1` [Example 240, N-{4-[6,6-dimethyl-4-oxo-3-(phenylamino)-4,5,6,7-tetrahydro-1H-indol-2-yl]pyridin-2-yl}-N-methylacetamide], the IC50 stood at 6740 nM. Consider `CC(F)C(=O)Nc1cc(-c2[nH]c3c(c2Nc2ccccc2)C(=O)CCC3)ccn1` (stereo not drawn) [Example 241, 2-fluoro-N-{4-[4-oxo-3-(phenylamino)-4,5,6,7-tetrahydro-1H-indol-2-yl]pyridin-2-yl}propanamide], for which the IC50 is 40.7 nM. On to `CC(C)(F)C(=O)Nc1cc(-c2[nH]c3c(c2Nc2ccccc2)C(=O)CCC3)ccn1` [Example 242, 2-fluoro-2-methyl-N-{4-[4-oxo-3-(phenylamino)-4,5,6,7-tetrahydro-1H-indol-2-yl]pyridin-2-yl}propanamide], for which the IC50 was determined as 182 nM. Regarding `CC(C)(CO)C(=O)Nc1cc(-c2[nH]c3c(c2Nc2ccccc2)C(=O)CCC3)ccn1` [Example 243, 3-hydroxy-2,2-dimethyl-N-{4-[4-oxo-3-(phenylamino)-4,5,6,7-tetrahydro-1H-indol-2-yl]pyridin-2-yl}propanamide], the IC50 came out at 255 nM.

Take `CSCC(=O)Nc1cc(-c2[nH]c3c(c2Nc2ccccc2)C(=O)CCC3)ccn1` [Example 244, 2-(methylsulfanyl)-N-{4-[4-oxo-3-(phenylamino)-4,5,6,7-tetrahydro-1H-indol-2-yl]pyridin-2-yl}acetamide]: the IC50 amounted to 31 nM. Next, `CC(C)(C#N)C(=O)Nc1cc(-c2[nH]c3c(c2Nc2ccccc2)C(=O)CCC3)ccn1` [Example 245, 2-cyano-2-methyl-N-{4-[4-oxo-3-(phenylamino)-4,5,6,7-tetrahydro-1H-indol-2-yl]pyridin-2-yl}propanamide]: 84.4 nM; `N#CC1(C(=O)Nc2cc(-c3[nH]c4c(c3Nc3ccccc3)C(=O)CCC4)ccn2)CC1` [Example 246, 1-cyano-N-{4-[4-oxo-3-(phenylamino)-4,5,6,7-tetrahydro-1H-indol-2-yl]pyridin-2-yl}cyclopropanecarboxamide]: 60.2 nM. In the case of `CC(C(=O)Nc1cc(-c2[nH]c3c(c2Nc2ccccc2)C(=O)CCC3)ccn1)C(F)(F)F` (stereo not drawn) [Example 247, 3,3,3-trifluoro-2-methyl-N-{4-[4-oxo-3-(phenylamino)-4,5,6,7-tetrahydro-1H-indol-2-yl]pyridin-2-yl}propanamide], the IC50 amounted to 81.3 nM. In the case of `CS(=O)(=O)CC(=O)Nc1cc(-c2[nH]c3c(c2Nc2ccccc2)C(=O)CCC3)ccn1` [Example 248, 2-(methylsulfonyl)-N-{4-[4-oxo-3-(phenylamino)-4,5,6,7-tetrahydro-1H-indol-2-yl]pyridin-2-yl}acetamide], the IC50 came to 28.2 nM.

As for `O=C1CCCc2[nH]c(-c3ccnc(NC(=O)[C@H]4C[C@@H]4F)c3)c(Nc3ccccc3)c21` [Example 250, (R,S/S,R)-2-fluoro-N-{4-[4-oxo-3-(phenylamino)-4,5,6,7-tetrahydro-1H-indol-2-yl]pyridin-2-yl}cyclopropanecarboxamide], the IC50 was determined as 10 nM. Take `O=C1CCCc2[nH]c(-c3ccnc(NC(=O)[C@H]4C[C@@H]4F)c3)c(Nc3ccccc3)c21` [Example 251, (R,S/S,R)-2-fluoro-N-{4-[4-oxo-3-(phenylamino)-4,5,6,7-tetrahydro-1H-indol-2-yl]pyridin-2-yl}cyclopropanecarboxamide]: the IC50 came to 10.5 nM. Next, `O=C1CCCc2[nH]c(-c3ccnc(NC(=O)[C@H]4C[C@H]4F)c3)c(Nc3ccccc3)c21` [Example 253, (1R,2R)-2-fluoro-N-{4-[4-oxo-3-(phenylamino)-4,5,6,7-tetrahydro-1H-indol-2-yl]pyridin-2-yl}cyclopropanecarboxamide]: 23.3 nM; `CC1(C)CC(=O)c2c([nH]c(-c3ccnc(NC(=O)[C@@H]4C[C@@H]4F)c3)c2Nc2ccccc2)C1` [Example 258]: 6.49 nM; `CC1(C)CC(=O)c2c([nH]c(-c3ccnc(NC(=O)[C@H]4C[C@H]4F)c3)c2Nc2ccccc2)C1` [Example 259]: 10.1 nM. Next, `O=C1CCCc2[nH]c(-c3ccnc(NC(=O)C4(F)CC4)c3)c(Nc3ccccc3)c21` [Example 261, 1-fluoro-N-{4-[4-oxo-3-(phenylamino)-4,5,6,7-tetrahydro-1H-indol-2-yl]pyridin-2-yl}cyclopropanecarboxamide]: 41.7 nM. Turning to `CC(C)(CF)C(=O)Nc1cc(-c2[nH]c3c(c2Nc2ccccc2)C(=O)CCC3)ccn1` [Example 263, 3-fluoro-2,2-dimethyl-N-{4-[4-oxo-3-(phenylamino)-4,5,6,7-tetrahydro-1H-indol-2-yl]pyridin-2-yl}propanamide], the IC50 came to 140 nM.

For `O=C(Nc1cc(-c2[nH]c3c(c2Nc2ccccc2)C(=O)CCC3)ccn1)c1ccccc1F` [Example 264, 2-fluoro-N-{4-[4-oxo-3-(phenylamino)-4,5,6,7-tetrahydro-1H-indol-2-yl]pyridin-2-yl}benzamide], the IC50 was determined as 13.9 nM.

With `O=C(Nc1cc(-c2[nH]c3c(c2Nc2ccccc2)C(=O)CCC3)ccn1)c1cccc(F)c1` [Example 265, 3-fluoro-N-{4-[4-oxo-3-(phenylamino)-4,5,6,7-tetrahydro-1H-indol-2-yl]pyridin-2-yl}benzamide], the IC50 was 19.1 nM. With `O=C(Nc1cc(-c2[nH]c3c(c2Nc2ccccc2)C(=O)CCC3)ccn1)c1ccc(F)cc1` [Example 266, 4-fluoro-N-{4-[4-oxo-3-(phenylamino)-4,5,6,7-tetrahydro-1H-indol-2-yl]pyridin-2-yl}benzamide], the IC50 came out at 13.8 nM.

Regarding `CC1(C)CC(=O)c2c([nH]c(-c3ccnc(NC(=O)c4ccc(F)cc4)c3)c2Nc2ccccc2)C1` [Example 267, N-{4-[6,6-dimethyl-4-oxo-3-(phenylamino)-4,5,6,7-tetrahydro-1H-indol-2-yl]pyridin-2-yl}-4-fluorobenzamide], the IC50 is 9.55 nM. On to `O=C(Nc1cc(-c2[nH]c3c(c2Nc2ccccc2)C(=O)CCC3)ccn1)c1ccncc1` [Example 268, N-{4-[4-oxo-3-(phenylamino)-4,5,6,7-tetrahydro-1H-indol-2-yl]pyridin-2-yl}pyridine-4-carboxamide], for which the IC50 came to 22.7 nM. As to `O=C(Nc1cc(-c2[nH]c3c(c2Nc2ccccc2)C(=O)CCC3)ccn1)c1ccccn1` [Example 269, N-{4-[4-oxo-3-(phenylamino)-4,5,6,7-tetrahydro-1H-indol-2-yl]pyridin-2-yl}pyridine-2-carboxamide], the IC50 came to 29.4 nM. Take `O=C(Nc1cc(-c2[nH]c3c(c2Nc2ccccc2)C(=O)CCC3)ccn1)c1nccs1` [Example 270, N-{4-[4-oxo-3-(phenylamino)-4,5,6,7-tetrahydro-1H-indol-2-yl]pyridin-2-yl}-1,3-thiazole-2-carboxamide]: the IC50 worked out at 29.4 nM. For the compound `O=C(Nc1cc(-c2[nH]c3c(c2Nc2ccccc2)C(=O)CCC3)ccn1)c1cscn1` [Example 271, N-{4-[4-oxo-3-(phenylamino)-4,5,6,7-tetrahydro-1H-indol-2-yl]pyridin-2-yl}-1,3-thiazole-4-carboxamide], the IC50 is 7.64 nM. For `CC1(C)CC(=O)c2c([nH]c(-c3ccnc(NC(=O)c4cscn4)c3)c2Nc2ccccc2)C1` [Example 272, N-{4-[6,6-dimethyl-4-oxo-3-(phenylamino)-4,5,6,7-tetrahydro-1H-indol-2-yl]pyridin-2-yl}-1,3-thiazole-4-carboxamide], the IC50 worked out at 6.63 nM. The value for `O=C(Nc1cc(-c2[nH]c3c(c2Nc2ccccc2)C(=O)CCC3)ccn1)c1cncs1` [Example 273, N-{4-[4-oxo-3-(phenylamino)-4,5,6,7-tetrahydro-1H-indol-2-yl]pyridin-2-yl}-1,3-thiazole-5-carboxamide] was 7.66 nM; that for `O=C(Nc1cc(-c2[nH]c3c(c2Nc2ccccc2)C(=O)CCC3)ccn1)c1ncc[nH]1` [Example 274, N-{4-[4-oxo-3-(phenylamino)-4,5,6,7-tetrahydro-1H-indol-2-yl]pyridin-2-yl}-1H-imidazole-2-carboxamide] was 48.2 nM; that for `O=C(Nc1cc(-c2[nH]c3c(c2Nc2ccccc2)C(=O)CCC3)ccn1)c1ccn[nH]1` [Example 275, N-{4-[4-oxo-3-(phenylamino)-4,5,6,7-tetrahydro-1H-indol-2-yl]pyridin-2-yl}-1H-pyrazole-5-carboxamide] was 12.7 nM.

`O=C(Nc1cc(-c2[nH]c3c(c2Nc2ccccc2)C(=O)CCC3)ccn1)c1ccsn1` [Example 276, N-{4-[4-oxo-3-(phenylamino)-4,5,6,7-tetrahydro-1H-indol-2-yl]pyridin-2-yl}-1,2-thiazole-3-carboxamide]: the IC50 came to 18.4 nM. `O=C(Nc1cc(-c2[nH]c3c(c2Nc2ccccc2)C(=O)CCC3)ccn1)c1cocn1` [Example 278, N-{4-[4-oxo-3-(phenylamino)-4,5,6,7-tetrahydro-1H-indol-2-yl]pyridin-2-yl}-1,3-oxazole-4-carboxamide]: the IC50 is 12.7 nM.

For the compound `O=C(Nc1cc(-c2[nH]c3c(c2Nc2ccccc2)C(=O)CCC3)ccn1)c1cccnc1` [Example 279, N-{4-[4-oxo-3-(phenylamino)-4,5,6,7-tetrahydro-1H-indol-2-yl]pyridin-2-yl}pyridine-3-carboxamide], the IC50 came out at 12.6 nM. `O=C(Nc1cc(-c2[nH]c3c(c2Nc2ccccc2)C(=O)CCC3)ccn1)c1ccns1` [Example 280, N-{4-[4-oxo-3-(phenylamino)-4,5,6,7-tetrahydro-1H-indol-2-yl]pyridin-2-yl}-1,2-thiazole-5-carboxamide]: the IC50 worked out at 10.3 nM.
